From patent publication US20130210846A1, “USE OF NOVEL PAN-CDK INHIBITORS FOR TREATING TUMORS” (BAYER INTELLECTUAL PROPERTY GMBH, priority 2010, published 2013)

Columns and labels:
Caco-2 = test: Proliferation assay Caco-2; format: cell-based, human; conditions: Caco-2, colon/rectum carcinoma; 4 days, crystal violet
Experimental: (§1) Cultivated human tumor cells (originally obtained from ATCC, HeLa-MaTu and HeLa-MaTu-ADR, originally obtained from Epo GmbH, Berlin, Germany) were plated at a density of 1000 to 5000 cells/measuring point, depending on the growth rate of the cell line, in a 96-well multititer plate in 200 μl of growth medium (DMEM/HAMS F12, 2 mM L-glutamine, 10% fetal calf serum). After 24 hours the cells of one plate (zero-point plate) were stained with crystal violet (see below), whereas the medium of the other plates was replaced with fresh culture medium (200 μl), to which the test substances had been added at various concentrations (0 μM, and in the range 0.01-30 μM; the final concentration of the solvent dimethyl sulfoxide was 0.5%). The cells were incubated for 4 days in the presence of the test substances. Cellular proliferation was determined by staining the cells with crystal violet: the cells were fixed by adding 20 μl/measuring point of an 11% glutaraldehyde solution for 15 min at room temperature. After washing the fixed cells with water three times, the plates were dried at room temperature. The cells were stained by adding 100 μl/measuring point of a 0.1% crystal violet solution (pH adjusted to pH3 by adding acetic acid). After washing the stained cells with water three times, the plates were dried at room temperature. The dye was dissolved by adding 100 μl/measuring point of a 10% acetic acid solution. The extinction was determined photometrically at a wavelength of 595 nm. The percentage change in cell growth was calculated by standardization of the measured values to the extinction values of the zero-point plate (=0%) and the extinction of the untreated (0 μM) cells (=100%). The measured data were standardized to 0% inhibition (cell proliferation without inhibitor) and 100% inhibition (zero-point plate). The IC50 values were determined by means of a 4-parameter fit using the company's own software.
(§2) The substances were examined in the following cell lines which, in an exemplary manner, represent the stated indications: […]

HeLa-MaTu = test: Proliferation assay HeLa-MaTu; format: cell-based, human; conditions: cervix carcinoma, 4 days, crystal violet
Experimental: as §1, §2

HeLa-MaTu-ADR = test: Proliferation assay HeLa-MaTu-ADR; format: cell-based, human; conditions: cervix carcinoma, 4 days, crystal violet
Experimental: as §1, §2

NCI-H460 = test: Proliferation assay NCI-H460; format: cell-based, human; conditions: NCI-H460, non-small-cell bronchial carcinoma; 4 days, crystal violet
Experimental: as §1, §2

MCF7 = test: Proliferation assay MCF7; format: cell-based, human; conditions: MCF7, estrogen receptor-positive mamma carcinoma; 4 days, crystal violet
Experimental: as §1, §2

DU145 = test: Proliferation assay DU145; format: cell-based, human; conditions: DU145, prostate carcinoma; 4 days, crystal violet
Experimental: as §1, §2

CDK2/CycE = molecular target: T1, CDK2/CycE (Homo sapiens, UniProt P24941); test: CDK2/CycE kinase assay (Assay 2); format: biochemical; conditions: 0.5 μM ATP, histon IIIS, 10 min 22° C.; read-out: CDK2/CycE (Assay 2) Concentration for half-maximal inhibition of the enzyme activity, IC50
T1 construct: purchased ProQinase GmbH, Freiburg, Germany; host or cells: baculovirus-infected insect cells (Sf9)
Experimental: Recombinant CDK2 and CycE-GST fusion proteins, purified from baculovirus-infected insect cells (Sf9), were purchased from ProQinase GmbH, Freiburg, Germany. Histon HIS, used as kinase substrate, was purchased from Sigma.
The reaction was stopped by adding EDTA solution (250 mM, pH 8.0, 15 μl/measuring point).
From each reaction mixture, 15 μl was applied to P30 filter strips (from Wallac), and unincorporated ^33P-ATP was removed by washing the filter strips three times, for 10 min each time, in 0.5% phosphoric acid. After drying the filter strips for 1 hour at 70° C., the filter strips were covered with scintillator strips (MeltiLex™ A, from Wallac) and stoved for 1 hour at 90° C. The amount of incorporated ^33P (substrate phosphorylation) was determined by scintillation measurement in a gamma-radiation measuring instrument (Wallac). […] The IC50 values were determined by means of a 4-parameter fit using the company's own software.

[1] = molecular target: T2, VEGF receptor tyrosine kinase-2 (VEGF-R2) (Homo sapiens, UniProt P35968); test: VEGF receptor-2 kinase assay (Assay 3); format: biochemical; conditions: 8 μM ATP, poly-(Glu4Tyr), 10 min 22° C.; read-out: VEGF-R2 (Assay 3) Concentration for half-maximal inhibition of the enzyme activity, IC50
T2 construct: GST; made in house; host or cells: baculovirus-infected insect cells (Sf9)
Experimental: Recombinant VEGF receptor tyrosine kinase-2 was purified as GST fusion protein from baculovirus-infected insect cells (Sf9). Poly-(Glu4Tyr), used as kinase substrate, was purchased from Sigma.
VEGF receptor tyrosine kinase (90 ng/measuring point) was incubated for 10 min at 22° C. in the presence of various concentrations of test substances (0 μM, and within the range 0.001-30 μM) in 30 μl assay buffer [40 mM Tris/HCl pH5.5, 10 mM MgCl2, 1 mM MnCl2, 3 μM Na ortho-vanadate, 1.0 mM dithiothreitol, 8 μM adenosine triphosphate (ATP), 0.96 μg/measuring point poly-(Glu4Tyr), 0.2 μCi/measuring point ^33P-gamma ATP, 1.4% dimethyl sulfoxide]. The reaction was stopped by adding EDTA solution (250 mM, pH 8.0, 15 μl/measuring point).
(§3) From each reaction mixture, 15 μl was applied to P30 filter strips (from Wallac), and unincorporated ^33P-ATP was removed by washing the filter strips three times, for 10 min each time, in 0.5% phosphoric acid. After drying the filter strips for 1 hour at 70° C., the filter strips were covered with scintillator strips (MeltiLex™ A, from Wallac) and stoved for 1 hour at 90° C. The amount of incorporated ^33P (substrate phosphorylation) was determined by scintillation measurement in a gamma-radiation measuring instrument (Wallac). The measured data were standardized to 0% inhibition (enzyme reaction without inhibitor) and 100% inhibition (all assay components except enzyme). The IC50 values were determined by means of a 4-parameter fit using the company's own software.

CDK1/CycB = molecular target: T3, CDK1/CycB (Homo sapiens, UniProt P06493); test: CDK1/CycB kinase assay (Assay 1); format: biochemical; conditions: 0.5 μM ATP, histon IIIS, 10 min 22° C.; read-out: CDK1/CycB (Assay 1) Concentration for half-maximal inhibition of the enzyme activity, IC50
T3 construct: purchased ProQinase GmbH, Freiburg, Germany; host or cells: baculovirus-infected insect cells (Sf9)
Experimental: Recombinant CDK1 and CycB-GST fusion proteins, purified from baculovirus-infected insect cells (Sf9), were purchased from ProQinase GmbH, Freiburg, Germany. The histon HIS used as kinase substrate is commercially available from Sigma.
CDK1/CycB (200 ng/measuring point) was incubated for 10 min at 22° C. in the presence of various concentrations of test substances (0 μM, and within the range 0.01-100 μM) in assay buffer [50 mM Tris/HCl pH8.0, 10 mM MgCl2, 0.1 mM Na ortho-vanadate, 1.0 mM dithiothreitol, 0.5 μM adenosine triphosphate (ATP), 10 μg/measuring point histon IIIS, 0.2 μCi/measuring point ^33P-gamma ATP, 0.05% NP40, 1.25% dimethyl sulfoxide]. The reaction was stopped by adding EDTA solution (250 mM, pH 8.0, 15 μl/measuring point).
as §3, with “μl were” for “μl was”

T3 sequence (P06493 whole entry): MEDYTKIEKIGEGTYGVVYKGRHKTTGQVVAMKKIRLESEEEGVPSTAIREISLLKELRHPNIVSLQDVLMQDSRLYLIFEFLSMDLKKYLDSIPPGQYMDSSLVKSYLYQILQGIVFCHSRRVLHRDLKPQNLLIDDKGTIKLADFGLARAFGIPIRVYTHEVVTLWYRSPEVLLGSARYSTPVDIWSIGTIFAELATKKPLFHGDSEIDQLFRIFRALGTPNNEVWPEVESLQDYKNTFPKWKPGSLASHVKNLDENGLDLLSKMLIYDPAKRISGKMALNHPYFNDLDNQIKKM
T3 sequence (P14635 whole entry partner): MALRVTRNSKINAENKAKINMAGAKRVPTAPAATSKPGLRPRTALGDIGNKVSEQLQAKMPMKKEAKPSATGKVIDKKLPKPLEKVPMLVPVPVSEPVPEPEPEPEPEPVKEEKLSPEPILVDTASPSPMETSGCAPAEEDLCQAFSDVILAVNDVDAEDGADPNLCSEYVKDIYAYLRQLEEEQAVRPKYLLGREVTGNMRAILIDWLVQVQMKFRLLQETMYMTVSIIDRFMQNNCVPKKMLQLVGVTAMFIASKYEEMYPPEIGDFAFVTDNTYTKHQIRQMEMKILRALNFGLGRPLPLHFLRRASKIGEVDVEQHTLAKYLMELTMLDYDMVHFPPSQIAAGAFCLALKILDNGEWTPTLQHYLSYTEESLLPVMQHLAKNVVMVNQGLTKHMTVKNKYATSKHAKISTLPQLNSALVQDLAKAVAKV
T2 sequence (P35968 20-1356, species assumed): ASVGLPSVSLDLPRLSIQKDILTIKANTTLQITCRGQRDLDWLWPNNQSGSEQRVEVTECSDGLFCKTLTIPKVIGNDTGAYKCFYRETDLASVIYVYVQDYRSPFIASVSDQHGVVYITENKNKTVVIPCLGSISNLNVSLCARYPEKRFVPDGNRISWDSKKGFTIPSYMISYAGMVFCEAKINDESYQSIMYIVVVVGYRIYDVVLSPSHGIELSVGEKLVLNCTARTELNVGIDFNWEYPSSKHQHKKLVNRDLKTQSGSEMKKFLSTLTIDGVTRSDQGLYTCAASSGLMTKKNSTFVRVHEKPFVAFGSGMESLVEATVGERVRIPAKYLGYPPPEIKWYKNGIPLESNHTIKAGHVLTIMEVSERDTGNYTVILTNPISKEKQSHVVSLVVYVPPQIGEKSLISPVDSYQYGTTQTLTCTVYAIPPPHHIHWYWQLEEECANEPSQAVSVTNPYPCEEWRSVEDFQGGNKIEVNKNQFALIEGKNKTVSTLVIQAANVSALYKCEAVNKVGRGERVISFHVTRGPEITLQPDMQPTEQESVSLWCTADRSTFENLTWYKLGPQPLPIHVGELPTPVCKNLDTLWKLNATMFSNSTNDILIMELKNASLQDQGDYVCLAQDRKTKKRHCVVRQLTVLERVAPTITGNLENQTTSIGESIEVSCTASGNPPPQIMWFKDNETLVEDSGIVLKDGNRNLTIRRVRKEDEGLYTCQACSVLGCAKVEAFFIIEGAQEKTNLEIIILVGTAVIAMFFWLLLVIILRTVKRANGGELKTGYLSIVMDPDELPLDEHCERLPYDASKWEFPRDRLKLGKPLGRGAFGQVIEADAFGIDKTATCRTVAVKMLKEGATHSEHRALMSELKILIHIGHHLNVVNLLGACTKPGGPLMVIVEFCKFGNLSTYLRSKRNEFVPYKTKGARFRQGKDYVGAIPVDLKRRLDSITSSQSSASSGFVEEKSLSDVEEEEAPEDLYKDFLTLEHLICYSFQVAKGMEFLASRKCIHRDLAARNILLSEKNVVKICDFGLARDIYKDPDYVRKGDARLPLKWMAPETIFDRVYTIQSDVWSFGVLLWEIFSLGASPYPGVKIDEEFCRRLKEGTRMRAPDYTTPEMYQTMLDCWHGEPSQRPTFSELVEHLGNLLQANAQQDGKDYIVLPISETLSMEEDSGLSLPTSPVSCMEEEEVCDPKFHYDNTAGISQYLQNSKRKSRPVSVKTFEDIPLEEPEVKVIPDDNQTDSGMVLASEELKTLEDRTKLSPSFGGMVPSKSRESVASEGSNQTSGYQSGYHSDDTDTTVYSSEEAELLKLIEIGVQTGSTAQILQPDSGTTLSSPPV

IC50 (Caco-2) [nM] | IC50 (HeLa-MaTu) [nM] | IC50 (HeLa-MaTu-ADR) [nM] | IC50 (NCI-H460) [nM] | IC50 (MCF7) [nM] | IC50 (DU145) [nM] | IC50 (CDK2/CycE) [nM] | IC50 [1] [nM] | IC50 (CDK1/CycB) [nM] | IC50 (HeLa-MaTu; Homo sapiens, 96 h) [nM] | SMILES
196 | 27 | 112 | 119 | 106 | 152 |  |  |  |  | CCS(=N)(=O)c1ccc(Nc2ncc(C(F)(F)F)c(N[C@H](C)C(C)(C)O)n2)cc1 (mixture of isomers) [Example 7-SI-1, (RS)—S-Ethyl-S-(4-{[4-{[(R)-2-hydroxy-1,2-dimethylpropyl]amino}-5-(trifluoromethyl)pyrimidin-2-yl]amino}phenyl)sulfoximide]
 |  |  |  |  |  | 4 | 143 | 24 |  | CCS(=N)(=O)c1ccc(Nc2ncc(C(F)(F)F)c(N[C@H](C)C(C)(C)O)n2)cc1 (single isomer, unassigned) [Example 7-SI-1]
80 |  | 35 | 48 | 48 | 45 |  | 114 |  | 13 | C[C@@H](O)[C@@H](C)Oc1nc(Nc2ccc(S(=N)(=O)C3CC3)cc2)ncc1C(F)(F)F (mixture of isomers) [Example 1-SI-1, (RS)—S-Cyclopropyl-S-(4-{[4-{[(1R,2R)-2-hydroxy-1-methylpropyl]oxy}-5-(trifluoromethyl)-pyrimidin-2-yl]amino}phenyl)sulfoximide]
67 | 10 | 36 | 51 | 39 | 42 |  |  |  |  | CCS(=N)(=O)c1ccc(Nc2ncc(C(F)(F)F)c(N[C@H](C)C(C)(C)O)n2)cc1 (mixture of isomers) [Example 7-SI-2, (RS)—S-Ethyl-S-(4-{[4-{[(R)-2-hydroxy-1,2-dimethylpropyl]amino}-5-(trifluoromethyl)pyrimidin-2-yl]amino}phenyl)sulfoximide]
41 | 10 | 24 | 28 | 23 | 30 |  |  |  |  | C[C@@H](O)[C@@H](C)Nc1nc(Nc2ccc(S(C)(=N)=O)cc2)ncc1C(F)(F)F (mixture of isomers) [Example 8-SI-2, (RS)—S-(4-{[4-{[(1R,2R)-2-Hydroxy-1-methylpropyl]amino}-5-(trifluoromethyl)pyrimidin-2-yl]-amino}phenyl)-S-methylsulfoximide]
120 |  | 35 | 50 | 59 | 100 | 5 | 73 | 10 |  | CCS(=N)(=O)c1ccc(Nc2ncc(C(F)(F)F)c(N[C@H](C)[C@@H](C)O)n2)cc1 (mixture of isomers) [Example 6-SI-1, (RS)—S-Ethyl-S-(4-{[4-{[(1R,2R)-2-hydroxy-1-methylpropyl]amino}-5-(trifluoromethyl)-pyrimidin-2-yl]amino}phenyl)sulfoximide]
 |  |  |  |  |  | 3 | 154 | 17 |  | C[C@@H](Nc1nc(Nc2ccc(S(C)(=N)=O)cc2)ncc1C(F)(F)F)C(C)(C)O (single isomer, unassigned) [Example 9-SI-2]
80 |  | 32 | 68 | 39 | 28 |  |  |  |  | C[C@@H](O)[C@@H](C)Oc1nc(Nc2ccc(S(C)(=N)=O)cc2)ncc1C(F)(F)F (mixture of isomers) [Example 2-SI-1, (RS)—S-(4-{[4-{[(1R,2R)-2-Hydroxy-1-methylpropyl]oxy}-5-(trifluoromethyl)pyrimidin-2-yl]-amino}phenyl)-S-methylsulfoximide]
 |  |  |  |  | 64 |  |  |  |  | C[C@@H](O)[C@@H](C)Nc1nc(Nc2ccc(S(C)(=N)=O)cc2)ncc1C(F)(F)F (mixture of isomers) [Example 8-SI-1, (RS)—S-(4-{[4-{[(1R,2R)-2-Hydroxy-1-methylpropyl]amino}-5-(trifluoromethyl)pyrimidin-2-yl]-amino}phenyl)-S-methylsulfoximide]
200 | 21 | 114 | 112 | 271 | 185 |  |  |  |  | C[C@@H](Nc1nc(Nc2ccc(S(C)(=N)=O)cc2)ncc1C(F)(F)F)C(C)(C)O (mixture of isomers) [Example 9-SI-2, (RS)—S-(4-{[4-{[(1R)-2-Hydroxy-1,2-dimethylpropyl]amino}-5-(trifluoromethyl)pyrimidin-2-yl]amino}phenyl)-S-methylsulfoximide]
61 |  | 19 | 34 | 89 | 34 |  |  |  |  | C[C@@H](Nc1nc(Nc2ccc(S(C)(=N)=O)cc2)ncc1C(F)(F)F)C(C)(C)O (mixture of isomers) [Example 9-SI-1, (RS)—S-(4-{[4-{[(1R)-2-Hydroxy-1,2-dimethylpropyl]amino}-5-(trifluoromethyl)pyrimidin-2-yl]amino}phenyl)-S-methylsulfoximide]
